ChEMBL document CHEMBL1201862, “PubChem BioAssay data set” (2004)
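Assay format: 96-well plates, 48-hour exposure. GI50 = concentration required for 50% inhibition of growth.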 Activity calls are given as the source filed them. Rule as the data show it: active = GI50 up to about 1.1 µM and inactive = higher.

What was measured:
Test in all cases: inhibition of tumour cell growth, NCI panel, 48 h
SW-620 = system: SW-620
SK-MEL-28 = system: SK-MEL-28
KM12 = system: KM12
MDA-N = system: MDA-N
OVCAR-4 = system: OVCAR-4
T47D = system: T47D
ACHN = system: ACHN
DU-145 = system: DU-145
A498 = system: A498
IGROV-1 = system: IGROV-1
UO-31 = system: UO-31
SF-295 = system: SF-295
EKVX = system: EKVX
OVCAR-3 = system: OVCAR-3
COLO 205 = system: COLO 205
HCC 2998 = system: HCC 2998
NCI/ADR-RES = system: NCI/ADR-RES
TK-10 = system: TK-10
786-0 = system: 786-0
HOP-18 = system: HOP-18

## COc1ccc2oc(C(=O)N3CC(CCl)c4ccc(N)cc43)cc2c1 (stereo not drawn)
SW-620
  GI50: 0.348 µM (active)
SK-MEL-28
  GI50: 0.42 µM (active)
KM12
  GI50: 0.242 µM (active)
MDA-N
  GI50: 0.553 µM (active)
OVCAR-4
  GI50: 0.286 µM (active)
T47D
  GI50: 0.31 µM (active)
ACHN
  GI50: 0.147 µM (active)
DU-145
  GI50: 0.247 µM (active)
A498
  GI50: 0.296 µM (active)
IGROV-1
  GI50: 0.213 µM (active)
UO-31
  GI50: 0.194 µM (active)
SF-295
  GI50: 0.344 µM (active)
EKVX
  GI50: 0.933 µM (active)
OVCAR-3
  GI50: 0.918 µM (active)
COLO 205
  GI50: 0.284 µM (active)
HCC 2998
  GI50: 0.489 µM (active)
NCI/ADR-RES
  GI50: 0.213 µM (active)
TK-10
  GI50: 2.9 µM (inactive)
786-0
  GI50: 0.133 µM (active)

## CN1CN(c2ccccc2)C2(CCN(CCCSc3ccccc3NC(=O)/C=C/c3ccccc3)CC2)C1=O
SW-620
  GI50: 6.25 µM (inactive)
SK-MEL-28
  GI50: 2.11 µM (inactive)
KM12
  GI50: 4.59 µM (inactive)
MDA-N
  GI50: 2.57 µM (inactive)
OVCAR-4
  GI50: 3.59 µM (inactive)
T47D
  GI50: 4.01 µM (inactive)
ACHN
  GI50: 2.4 µM (inactive)
DU-145
  GI50: 3.82 µM (inactive)
A498
  GI50: 2.75 µM (inactive)
IGROV-1
  GI50: 2.86 µM (inactive)
UO-31
  GI50: 2.99 µM (inactive)
SF-295
  GI50: 3.3 µM (inactive)
EKVX
  GI50: 4.98 µM (inactive)
OVCAR-3
  GI50: 3.18 µM (inactive)
COLO 205
  GI50: 2.01 µM (inactive)
HCC 2998
  GI50: 4.84 µM (inactive)
NCI/ADR-RES
  GI50: 3.87 µM (inactive)
TK-10
  GI50: 8.39 µM (inactive)
786-0
  GI50: 7.03 µM (inactive)

## O=c1nc(NC2CCCCO2)ccn1CCO (stereo not drawn)
SW-620
  GI50: > 100 µM (inactive)
HOP-18
  GI50: > 100 µM (inactive)
SK-MEL-28
  GI50: > 100 µM (inactive)
KM12
  GI50: > 100 µM (inactive)
OVCAR-4
  GI50: > 100 µM (inactive)
ACHN
  GI50: > 100 µM (inactive)
A498
  GI50: > 100 µM (inactive)
IGROV-1
  GI50: > 100 µM (inactive)
UO-31
  GI50: > 100 µM (inactive)
SF-295
  GI50: > 100 µM (inactive)
EKVX
  GI50: > 100 µM (inactive)
OVCAR-3
  GI50: > 100 µM (inactive)
COLO 205
  GI50: > 100 µM (inactive)
TK-10
  GI50: > 100 µM (inactive)
786-0
  GI50: > 100 µM (inactive)

## CC12CCC(CC1=O)C2(C)CCC(N)=O (stereo not drawn)
SW-620
  GI50: > 100 µM (inactive)
SK-MEL-28
  GI50: > 100 µM (inactive)
KM12
  GI50: > 100 µM (inactive)
MDA-N
  GI50: > 100 µM (inactive)
OVCAR-4
  GI50: > 100 µM (inactive)
T47D
  GI50: > 100 µM (inactive)
ACHN
  GI50: > 100 µM (inactive)
DU-145
  GI50: > 100 µM (inactive)
A498
  GI50: > 100 µM (inactive)
IGROV-1
  GI50: > 100 µM (inactive)
UO-31
  GI50: > 100 µM (inactive)
SF-295
  GI50: > 100 µM (inactive)
EKVX
  GI50: > 100 µM (inactive)
OVCAR-3
  GI50: > 100 µM (inactive)
COLO 205
  GI50: > 100 µM (inactive)
HCC 2998
  GI50: > 100 µM (inactive)
NCI/ADR-RES
  GI50: > 100 µM (inactive)
TK-10
  GI50: > 100 µM (inactive)
786-0
  GI50: > 100 µM (inactive)

## CCn1c(C)nn2c(=O)c3ccccc3nc2c1=O
SW-620
  GI50: > 100 µM (inactive)
HOP-18
  GI50: > 100 µM (inactive)
SK-MEL-28
  GI50: > 100 µM (inactive)
KM12
  GI50: > 100 µM (inactive)
OVCAR-4
  GI50: > 100 µM (inactive)
ACHN
  GI50: > 100 µM (inactive)
A498
  GI50: > 100 µM (inactive)
IGROV-1
  GI50: > 100 µM (inactive)
SF-295
  GI50: > 100 µM (inactive)
EKVX
  GI50: > 100 µM (inactive)
OVCAR-3
  GI50: > 100 µM (inactive)
COLO 205
  GI50: > 100 µM (inactive)
HCC 2998
  GI50: > 100 µM (inactive)
TK-10
  GI50: > 100 µM (inactive)
786-0
  GI50: > 100 µM (inactive)

## Cc1ccc(S(=O)(=O)N/N=C2\CCCCCCCCCCC2CN(C)C)cc1 (stereo not drawn)
SW-620
  GI50: 17.9 µM (inactive)
SK-MEL-28
  GI50: 14.8 µM (inactive)
KM12
  GI50: 17.9 µM (inactive)
MDA-N
  GI50: 18.5 µM (inactive)
OVCAR-4
  GI50: 18 µM (inactive)
T47D
  GI50: 13.4 µM (inactive)
ACHN
  GI50: 20.1 µM (inactive)
DU-145
  GI50: 18.5 µM (inactive)
A498
  GI50: 17.7 µM (inactive)
IGROV-1
  GI50: 16 µM (inactive)
UO-31
  GI50: 9.04 µM (inactive)
SF-295
  GI50: 16.8 µM (inactive)
EKVX
  GI50: 22.9 µM (inactive)
OVCAR-3
  GI50: 17.5 µM (inactive)
COLO 205
  GI50: 17.4 µM (inactive)
HCC 2998
  GI50: 8.43 µM (inactive)
NCI/ADR-RES
  GI50: 14.9 µM (inactive)
TK-10
  GI50: 14.4 µM (inactive)
786-0
  GI50: 15.9 µM (inactive)

## O=C(c1ccc(Cl)cc1)N(C(=S)N1CCN(c2ccccc2)CC1)C1CCCCC1
SW-620
  GI50: > 100 µM (inactive)
HOP-18
  GI50: > 100 µM (inactive)
SK-MEL-28
  GI50: > 100 µM (inactive)
KM12
  GI50: > 100 µM (inactive)
OVCAR-4
  GI50: > 100 µM (inactive)
ACHN
  GI50: > 100 µM (inactive)
IGROV-1
  GI50: > 100 µM (inactive)
UO-31
  GI50: > 100 µM (inactive)
SF-295
  GI50: > 100 µM (inactive)
OVCAR-3
  GI50: > 100 µM (inactive)
COLO 205
  GI50: > 100 µM (inactive)
TK-10
  GI50: > 100 µM (inactive)
786-0
  GI50: > 100 µM (inactive)

## Cn1cnc([N+](=O)[O-])c1[Se]c1nc(N)nc2c1ncn2C1OC(CO)C(O)C1O (stereo not drawn)
SW-620
  GI50: > 100 µM (inactive)
SK-MEL-28
  GI50: > 100 µM (inactive)
KM12
  GI50: > 100 µM (inactive)
MDA-N
  GI50: > 100 µM (inactive)
OVCAR-4
  GI50: > 100 µM (inactive)
T47D
  GI50: > 100 µM (inactive)
ACHN
  GI50: > 100 µM (inactive)
DU-145
  GI50: > 100 µM (inactive)
A498
  GI50: > 100 µM (inactive)
IGROV-1
  GI50: > 100 µM (inactive)
UO-31
  GI50: > 100 µM (inactive)
SF-295
  GI50: > 100 µM (inactive)
EKVX
  GI50: > 100 µM (inactive)
OVCAR-3
  GI50: > 100 µM (inactive)
COLO 205
  GI50: > 100 µM (inactive)
HCC 2998
  GI50: > 100 µM (inactive)
NCI/ADR-RES
  GI50: > 100 µM (inactive)
TK-10
  GI50: > 100 µM (inactive)
786-0
  GI50: > 100 µM (inactive)
